Key:
crabgrass = assay: Test B pre/postemergence crabgrass; assay type: in vivo, Digitaria sanguinalis
Procedure, shortened: (§1)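 Response is a visual 0-to-10 score relative to untreated plants, where 0 means no effect and 10 means complete control, taken twelve to sixteen days after application. Treatments went onto soil at planting and onto foliage of 1- to 4-leaf plants, using a surfactant-containing non-phytotoxic solvent.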

giant foxtail = assay: Test B pre/postemergence giant foxtail; assay type: in vivo, Setaria faberii
Procedure, shortened: as §1

soybean = assay: Test B pre/postemergence soybean; assay type: in vivo, Glycine max
Procedure, shortened: as §1

sugar beet = assay: Test B pre/postemergence sugar beet; assay type: in vivo, Beta vulgaris
Procedure, shortened: as §1

winter wheat [1] = assay: Test E winter wheat; assay type: in vivo, Triticum aestivum; settings: Postemergence; for Wheat (winter) plant response rating: Rate 250 g/ha
Procedure, shortened: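 Visually scored herbicidal effect relative to untreated plants, taken ~21 to 28 days post-application; compound in solvent with surfactant; postemergence sprays at the 1- to 4-leaf stage.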

blackgrass = assay: Test E blackgrass; assay type: in vivo, Alopecurus myosuroides; settings: Preemergence; for Blackgrass plant response rating (0 to 100 scale): Rate 250 g/ha
green foxtail = assay: Test E green foxtail; assay type: in vivo, Setaria viridis; settings: Preemergence; for Green foxtail plant response rating (0 to 100 scale): Rate 250 g/ha
Italian ryegrass = assay: Test E Italian ryegrass; assay type: in vivo, Lolium multiflorum; settings: Preemergence; for I. Ryegrass plant response rating (0 to 100 scale): Rate 250 g/ha
winter wheat [2] = assay: Test E winter wheat; assay type: in vivo, Triticum aestivum; settings: Preemergence; for Wheat (winter) plant response rating (0 to 100 scale): Rate 250 g/ha
wild oat = assay: Test E wild oat; assay type: in vivo, Avena fatua; settings: Preemergence; for Wild oat plant response rating (0 to 100 scale): Rate 250 g/ha
winter barley = assay: Test E winter barley; assay type: in vivo, Hordeum vulgare; settings: Preemergence; for Barley (winter) plant response rating (0 to 100 scale): Rate 250 g/ha
[3] = Preemergence, Rate 62 g/ha, scale of 0 to 10 where 0 is no effect and 10 is complete control
[4] = Preemergence, Rate 250 g/ha, scale of 0 to 10 where 0 is no effect and 10 is complete control
[5] = Preemergence, Rate 500 g/ha, scale of 0 to 10 where 0 is no effect and 10 is complete control
[6] = Rate 62 g/ha, Postemergence, scale of 0 to 10 where 0 is no effect and 10 is complete control
[7] = Rate 125 g/ha, Postemergence, scale 0 to 10
[8] = Rate 125 g/ha, Preemergence, scale of 0 to 10 where 0 is no effect and 10 is complete control
[9] = Rate 500 g/ha, Postemergence, scale 0 to 10, 0 no effect, 10 complete control
[10] = 0 to 100 scale where 0 is no effect and 100 is complete control
[11] = Rate 500 g/ha, 0 to 100 scale, 0 is no effect, 100 is complete control
[12] = Rate 500 g/ha, 0 to 100 scale where 0 is no effect and 100 is complete control
[13] = Rate 1000 g/ha, 0 to 100 scale, 0 no effect, 100 complete control
[14] = Rate 31 g/ha, 0 to 100 scale, 0 no effect, 100 complete control
[15] = Rate 62 g/ha, 0 to 100 scale, 0 no effect, 100 complete control
[16] = Rate 125 g/ha, 0 to 100 scale (0 no effect, 100 complete control)
[17] = Rate 125 g/ha, Postemergence, scale of 0 to 10 where 0 is no effect and 10 is complete control
[18] = Rate 250 g/ha, Postemergence, scale of 0 to 10 where 0 is no effect and 10 is complete control

Structure (SMILES): Cc1nc(C)c(Cn2c(=O)on(C(=O)N(c3ccc(F)cc3F)C(C)C)c2=O)s1 [Compound 233]
- Crabgrass plant response rating (crabgrass; [3]): 5
- Crabgrass plant response rating (crabgrass; [4]): 9
- Plant response rating, Crabgrass (crabgrass; [5]): 10
- Crabgrass plant response rating (crabgrass; [6]): 0
- Crabgrass plant response rating (crabgrass; [7]): 0
- Crabgrass plant response rating (crabgrass; [8]): 6
- Plant response rating (0 to 10; 0 is no effect, 10 is complete control), Crabgrass (crabgrass; Rate 250 g/ha, Postemergence): 1
- Crabgrass plant response rating (crabgrass; [9]): 6
- Giant foxtail plant response rating (giant foxtail; [3]): 7
- Giant foxtail plant response rating (giant foxtail; [4]): 9
- Plant response rating, Giant foxtail (giant foxtail; [5]): 10
- Giant foxtail plant response rating (giant foxtail; [6]): 0
- Giant foxtail plant response rating (giant foxtail; [7]): 0
- Giant foxtail plant response rating (giant foxtail; [8]): 7
- Plant response rating (0 to 10; 0 is no effect, 10 is complete control), Giant foxtail (giant foxtail; Rate 250 g/ha, Postemergence): 3
- Giant foxtail plant response rating (giant foxtail; [9]): 6
- Soybean plant response rating (soybean; [3]): 0
- Soybean plant response rating (soybean; [4]): 0
- Plant response rating, Soybean (soybean; [5]): 0
- Soybean plant response rating (soybean; [6]): 3
- Soybean plant response rating (soybean; [7]): 3
- Soybean plant response rating (soybean; [8]): 0
- Plant response rating (0 to 10; 0 is no effect, 10 is complete control), Soybean (soybean; Rate 250 g/ha, Postemergence): 3
- Soybean plant response rating (soybean; [9]): 5
- Sugarbeets plant response rating (sugar beet; [3]): 0
- Sugarbeets plant response rating (sugar beet; [4]): 4
- Plant response rating, Sugarbeets (sugar beet; [5]): 8
- Sugarbeets plant response rating (sugar beet; [6]): 0
- Sugarbeets plant response rating (sugar beet; [7]): 0
- Sugarbeets plant response rating (sugar beet; [8]): 0
- Plant response rating (0 to 10; 0 is no effect, 10 is complete control), Sugarbeets (sugar beet; Rate 250 g/ha, Postemergence): 0
- Sugarbeets plant response rating (sugar beet; [9]): 4
- Plant response rating, Wheat (winter) (winter wheat [1]; Rate 1000 g/ha, 0 to 100 scale where 0 is no effect and 100 is complete control): 60
- Wheat (winter) plant response rating (winter wheat [1]; [10]): 50
- Plant response rating, Wheat (winter) (winter wheat [1]; [11]): 55
- Blackgrass plant response rating (0 to 100 scale) (blackgrass): 50
- Plant response rating, Blackgrass (blackgrass; [12]): 60
- Plant response rating, Blackgrass (blackgrass; [13]): 85
- Green foxtail plant response rating (0 to 100 scale) (green foxtail): 100
- Plant response rating, Green foxtail (green foxtail; [12]): 100
- Plant response rating, Green foxtail (green foxtail; [13]): 100
- I. Ryegrass plant response rating (0 to 100 scale) (Italian ryegrass): 40
- Plant response rating, I. Ryegrass (Italian ryegrass; [12]): 50
- Plant response rating, I. Ryegrass (Italian ryegrass; [13]): 60
- Wheat (winter) plant response rating (0 to 100 scale) (winter wheat [2]): 50
- Plant response rating, Wheat (winter) (winter wheat [2]; [12]): 50
- Plant response rating, Wheat (winter) (winter wheat [2]; [13]): 60
- Wild oat plant response rating (0 to 100 scale) (wild oat): 55
- Plant response rating, Wild oat (wild oat; [12]): 60
- Plant response rating, Wild oat (wild oat; [13]): 60
- Barley (winter) plant response rating (0 to 100 scale) (winter barley): 30
- Plant response rating, Barley (winter) (winter barley; [12]): 50
- Plant response rating, Barley (winter) (winter barley; [13]): 60

Structure (SMILES): [2H]C([2H])([2H])n1c(=O)on(C(=O)N(c2ccc(F)cc2)C(C)C)c1=O [Compound 245]
- Crabgrass plant response rating (crabgrass; [3]): 9
- Crabgrass plant response rating (crabgrass; [4]): 9
- Plant response rating, Crabgrass (crabgrass; [5]): 10
- Crabgrass plant response rating (crabgrass; [6]): 2
- Crabgrass plant response rating (crabgrass; [8]): 9
- Plant response rating (0 to 10; 0 is no effect, 10 is complete control), Crabgrass (crabgrass; Rate 250 g/ha, Postemergence): 8
- Crabgrass plant response rating (crabgrass; [9]): 8
- Giant foxtail plant response rating (giant foxtail; [3]): 9
- Giant foxtail plant response rating (giant foxtail; [4]): 10
- Plant response rating, Giant foxtail (giant foxtail; [5]): 10
- Giant foxtail plant response rating (giant foxtail; [6]): 5
- Giant foxtail plant response rating (giant foxtail; [8]): 9
- Plant response rating (0 to 10; 0 is no effect, 10 is complete control), Giant foxtail (giant foxtail; Rate 250 g/ha, Postemergence): 8
- Giant foxtail plant response rating (giant foxtail; [9]): 8
- Soybean plant response rating (soybean; [3]): 0
- Soybean plant response rating (soybean; [4]): 2
- Plant response rating, Soybean (soybean; [5]): 8
- Soybean plant response rating (soybean; [6]): 2
- Soybean plant response rating (soybean; [8]): 2
- Soybean plant response rating (soybean; [9]): 5
- Sugarbeets plant response rating (sugar beet; [3]): 3
- Sugarbeets plant response rating (sugar beet; [4]): 10
- Plant response rating, Sugarbeets (sugar beet; [5]): 10
- Sugarbeets plant response rating (sugar beet; [6]): 1
- Sugarbeets plant response rating (sugar beet; [8]): 8
- Sugarbeets plant response rating (sugar beet; [9]): 7
- Plant response rating, Wheat (winter) (winter wheat [1]; [14]): 0
- Plant response rating, Wheat (winter) (winter wheat [1]; Rate 62 g/ha, 0 to 100 scale): 10
- Plant response rating, Wheat (winter) (winter wheat [1]; Rate 125 g/ha, 0 to 100 scale, 0 is no effect, 100 is complete control): 0
- Plant response rating, Blackgrass (blackgrass; [14]): 60
- Plant response rating, Blackgrass (blackgrass; [15]): 60
- Plant response rating, Blackgrass (blackgrass; [16]): 50
- Plant response rating, Green foxtail (green foxtail; [14]): 60
- Plant response rating, Green foxtail (green foxtail; [15]): 100
- Plant response rating, Green foxtail (green foxtail; [16]): 100
- Plant response rating, I. Ryegrass (Italian ryegrass; [14]): 20
- Plant response rating, I. Ryegrass (Italian ryegrass; [15]): 40
- Plant response rating, I. Ryegrass (Italian ryegrass; [16]): 60
- Plant response rating, Wheat (winter) (winter wheat [2]; [14]): 20
- Plant response rating, Wheat (winter) (winter wheat [2]; [15]): 20
- Plant response rating, Wheat (winter) (winter wheat [2]; [16]): 50
- Plant response rating, Wild oat (wild oat; [14]): 30
- Plant response rating, Wild oat (wild oat; [15]): 40
- Plant response rating, Wild oat (wild oat; [16]): 30
- Plant response rating, Barley (winter) (winter barley; [14]): 40
- Plant response rating, Barley (winter) (winter barley; [15]): 50
- Plant response rating, Barley (winter) (winter barley; [16]): 70

Structure (SMILES): CC(C)N(C(=O)n1oc(=O)n(Cc2ccccn2)c1=O)c1ccc(F)cc1 [Compound 267]
- Crabgrass plant response rating (crabgrass; [3]): 2
- Crabgrass plant response rating (crabgrass; [4]): 1
- Plant response rating, Crabgrass (crabgrass; [5]): 8
- Crabgrass plant response rating (crabgrass; [17]): 0
- Crabgrass plant response rating (crabgrass; [8]): 0
- Plant response rating, Crabgrass (crabgrass; [18]): 3
- Crabgrass plant response rating (crabgrass; [9]): 7
- Giant foxtail plant response rating (giant foxtail; [3]): 8
- Giant foxtail plant response rating (giant foxtail; [4]): 9
- Plant response rating, Giant foxtail (giant foxtail; [5]): 9
- Giant foxtail plant response rating (giant foxtail; [17]): 0
- Giant foxtail plant response rating (giant foxtail; [8]): 8
- Plant response rating, Giant foxtail (giant foxtail; [18]): 2
- Giant foxtail plant response rating (giant foxtail; [9]): 7
- Soybean plant response rating (soybean; [3]): 0
- Soybean plant response rating (soybean; [4]): 0
- Plant response rating, Soybean (soybean; [5]): 0
- Soybean plant response rating (soybean; [17]): 2
- Soybean plant response rating (soybean; [8]): 0
- Plant response rating, Soybean (soybean; [18]): 3
- Soybean plant response rating (soybean; [9]): 6
- Sugarbeets plant response rating (sugar beet; [3]): 0
- Sugarbeets plant response rating (sugar beet; [4]): 0
- Plant response rating, Sugarbeets (sugar beet; [5]): 5
- Sugarbeets plant response rating (sugar beet; [17]): 0
- Sugarbeets plant response rating (sugar beet; [8]): 0
- Plant response rating, Sugarbeets (sugar beet; [18]): 2
- Sugarbeets plant response rating (sugar beet; [9]): 4
- Wheat (winter) plant response rating (winter wheat [1]; [10]): 70
- Plant response rating, Wheat (winter) (winter wheat [1]; [11]): 70
- Blackgrass plant response rating (0 to 100 scale) (blackgrass): 50
- Plant response rating, Blackgrass (blackgrass; [12]): 60
- Green foxtail plant response rating (0 to 100 scale) (green foxtail): 100
- Plant response rating, Green foxtail (green foxtail; [12]): 100
- I. Ryegrass plant response rating (0 to 100 scale) (Italian ryegrass): 50
- Plant response rating, I. Ryegrass (Italian ryegrass; [12]): 50
- Wheat (winter) plant response rating (0 to 100 scale) (winter wheat [2]): 55
- Plant response rating, Wheat (winter) (winter wheat [2]; [12]): 70
- Wild oat plant response rating (0 to 100 scale) (wild oat): 55
- Plant response rating, Wild oat (wild oat; [12]): 70
- Barley (winter) plant response rating (0 to 100 scale) (winter barley): 30
- Plant response rating, Barley (winter) (winter barley; [12]): 70

Reference: patent US6737383B1, “Herbicidal oxadiazolidines” (priority 1999, dated 2004)
